# Test results as given in ChEMBL document CHEMBL5614371, “Quinazolines annelated at the N(3)-C(4) bond: Synthesis and biological activity” (Eur J Med Chem, 2024).
# pIC50: −log10 of the molar value.
# Columns and labels:
# Streptococcus pyogenes [1] = assay: microbe, parasite or virus in culture; conditions: ATCC 19615
# Staphylococcus aureus [2] = assay: microbe, parasite or virus in culture; conditions: ATCC 25923
# Aspergillus niger = assay: microbe, parasite or virus in culture
# Trichoderma viride = assay: microbe, parasite or virus in culture
# Staphylococcus aureus [3] = assay: microbe, parasite or virus in culture
# Klebsiella pneumoniae = assay: microbe, parasite or virus in culture
# Escherichia coli = assay: microbe, parasite or virus in culture
# Bacillus subtilis = assay: microbe, parasite or virus in culture
# Streptococcus pyogenes [4] = assay: microbe, parasite or virus in culture
# Candida albicans = assay: microbe, parasite or virus in culture
# HepG2 [5] = assay: cells; conditions: Homo sapiens, HepG2, 48 h
# HCT-116 [6] = assay: cells; conditions: Homo sapiens, HCT-116, 48 h
# [7] = system: Mycobacterium tuberculosis; assay: microbe, parasite or virus in culture; conditions: H37Rv
# [8] = system: Mycobacterium tuberculosis; assay: microbe, parasite or virus in culture; conditions: H37Rv ATCC 27294, 168 h
# A549 [9] = assay: cells; conditions: Homo sapiens, A549, 48 h
# HepG2 [10] = assay: cells; conditions: Homo sapiens, HepG2, 24 h
# HCT-116 [11] = assay: cells; conditions: Homo sapiens, HCT-116, 24 h
# MCF7 [12] = assay: cells; conditions: Homo sapiens, MCF7, 24 h
# A549 [13] = assay: cells; conditions: Homo sapiens, A549, 48 h; remark: listed apart in the source
# MCF7 [14] = assay: cells; conditions: Homo sapiens, MCF7, 48 h
# NCI-H1299 [15] = assay: cells; conditions: Homo sapiens, NCI-H1299, 48 h
# MDA-MB-231 [16] = assay: cells; conditions: Homo sapiens, MDA-MB-231, 48 h
# HCT-116 [17] = assay: cells; conditions: Homo sapiens, HCT-116, 48 h; remark: listed apart in the source
# MCF7 [18] = assay: cells; conditions: Homo sapiens, MCF7, 48 h; remark: listed apart in the source
# HCT-116 [19] = assay: cells; conditions: Homo sapiens
# MCF7 [20] = assay: cells; conditions: Homo sapiens
# MCF7 [21] = assay: cells; conditions: Homo sapiens; remark: listed apart in the source
# HCT-116 [22] = assay: cells; conditions: Homo sapiens; remark: listed apart in the source
# HepG2 [23] = assay: cells; conditions: Homo sapiens
# MCF7 [24] = assay: cells; conditions: Homo sapiens, MCF7, 48 h; remark: listed apart in the source
# HepG2 [25] = assay: cells; conditions: Homo sapiens, HepG2, 48 h; remark: listed apart in the source
# HCT-116 [26] = assay: cells; conditions: Homo sapiens; remark: listed apart in the source
# HepG2 [27] = assay: cells; conditions: Homo sapiens; remark: listed apart in the source
# NCI-H1299 [28] = assay: cells; conditions: Homo sapiens, NCI-H1299, 48 h; remark: listed apart in the source
# MDA-MB-231 [29] = assay: cells; conditions: Homo sapiens, MDA-MB-231, 48 h; remark: listed apart in the source
# A549 [30] = assay: cells; conditions: Homo sapiens, A549, 48 h; remark: listed apart in the source
# HepG2 [31] = assay: cells; conditions: Homo sapiens, HepG2, 48 h; remark: listed apart in the source
# HepG2 [32] = assay: cells; conditions: Homo sapiens, HepG2, 48 h; remark: listed apart in the source
# MCF7 [33] = assay: cells; conditions: Homo sapiens, MCF7, 48 h; remark: listed apart in the source
# MCF7 [34] = assay: cells; conditions: Homo sapiens, MCF7, 48 h; remark: listed apart in the source
# NCI-H1299 [35] = assay: cells; conditions: Homo sapiens
# cells = conditions: Homo sapiens, Breast carcinoma cell
# HCT-116 [36] = assay: cells; conditions: Homo sapiens, HCT-116, 72 h
# U-87 MG = assay: cells; conditions: Homo sapiens, 72 h
# A549 [37] = assay: cells; conditions: Homo sapiens, A549, 72 h
compound,measurement,setting,value
Cc1ccc(S(=O)(=O)Oc2ccc(-c3nc4ccccc4c4nc(=S)[nH]n34)cc2)cc1,MIC,Streptococcus pyogenes [1],6.25 µg/mL
same,MIC,Staphylococcus aureus [2],3.12 µg/mL
Nc1ccccc1-c1cc2ccccc2[nH]1,MIC,Aspergillus niger,2.5 µg/mL
same,MIC,Trichoderma viride,2.5 µg/mL
same,MIC,Staphylococcus aureus [3],2.5 µg/mL
same,MIC,Klebsiella pneumoniae,2.5 µg/mL
same,MIC,Escherichia coli,2.5 µg/mL
same,MIC,Bacillus subtilis,2.5 µg/mL
same,MIC,Streptococcus pyogenes [4],2.5 µg/mL
same,MIC,Candida albicans,2.5 µg/mL
Oc1ccc(/C=N/Nc2nc3ccccc3c3nncn23)cc1,pIC50,HepG2 [5],5.35
same,pIC50,HCT-116 [6],4.31
CCCc1nc2cc(C)ccc2c2nc3ccccc3n12,IC50,[7],12.5 µg/mL
same,IC50,[8],0.4 µg/mL
FC(F)(F)c1nc2ccccc2c2cc3cc(Cl)ccc3n12,pIC50,A549 [9],4.51
CN(C)c1ccc(/C=N/NC(=O)c2ccc(Nc3nc4ccccc4c4nncn34)cc2)cc1,pIC50,HepG2 [10],5.10
same,pIC50,HCT-116 [11],5.08
CCOC(=O)c1ccc2c3cc(Cl)c(Br)cc3ncn2c1=O,IC50,MCF7 [12],3.44 µg/mL
c1ccc2cc(-c3cc4c5ccccc5ncn4n3)ccc2c1,GI50,A549 [13],1.98 µM
same,GI50,MCF7 [14],2.03 µM
Oc1ccc(-c2nc3ccccc3c3cc(-c4ccccc4)nn23)cc1,GI50,NCI-H1299 [15],2.97 µM
same,GI50,MDA-MB-231 [16],1.95 µM
O=c1nc(-c2ccc(Nc3nc4ccccc4c4nncn34)cc2)cc(-c2ccccc2)[nH]1,pIC50,HCT-116 [17],4.93
Clc1ccc2c(c1)cc1c3ccccc3nc(-c3ccccc3)n21,pIC50,A549 [9],4.51
COc1ccc(-c2cc(-c3ccc(Nc4nc5ccccc5c5nncn45)cc3)nc(=O)[nH]2)cc1,pIC50,HCT-116 [17],4.93
Cc1ccc(-c2nc3ccccc3c3cc4ccccc4n23)cc1,pIC50,A549 [9],4.51
O=[N+]([O-])c1ccc(-c2nc3ccccc3c3cc4ccccc4n23)cc1,pIC50,A549 [9],4.51
c1ccc(-c2nc3ncccc3c3cc4ccccc4n23)cc1,pIC50,A549 [9],4.51
N#Cc1ccc2c3cc(Cl)c(Br)cc3ncn2c1=O,IC50,MCF7 [18],4.1 µg/mL
c1ccc(-c2nc3ccccc3c3cccn23)cc1,pIC50,A549 [9],4.51
CN(C)c1nc2ccccc2c2nncn12,pIC50,HCT-116 [19],4.65
O=C(N/N=C/c1c(Cl)cccc1Cl)c1ccc(Nc2nc3ccccc3c3nncn23)cc1,pIC50,HepG2 [10],5.27
same,pIC50,HCT-116 [11],5.13
CCOC(=O)c1nn2c(NC(C)(C)CC(C)(C)C)nc3ccccc3c2c1C(=O)OCC,GI50,NCI-H1299 [15],1.29 µM
same,GI50,A549 [13],1.1 µM
FC(F)(F)c1ccc2c(c1)cc1c3ccccc3nc(-c3ccccc3)n21,pIC50,A549 [9],4.51
O=C(/C=C\c1nc2ccccc2c2nc3ccccc3n12)c1ccc(Cl)c(Cl)c1,IC50,MCF7 [20],61 µg/mL
same,IC50,MCF7 [21],61 µg/mL
Cc1ccc(-c2nc3ccccc3c3cc4cc(Cl)ccc4n23)cc1,pIC50,A549 [9],4.51
O=C(N/N=C/c1ccccc1O)c1ccc(Nc2nc3ccccc3c3nncn23)cc1,pIC50,HepG2 [10],5.13
same,pIC50,HCT-116 [11],5.15
Cc1c(O)n2cnc3cc(Br)c(Cl)cc3c2nc1=O,IC50,MCF7 [18],3.5 µg/mL
Clc1cccc(Cl)c1/C=N/Nc1nc2ccccc2c2nncn12,pIC50,HCT-116 [22],5.28
same,pIC50,HepG2 [23],5.35
N#CC1=CC=C2c3cc(Cl)c(Br)cc3N=CN2C1N (configuration not stated),IC50,MCF7 [18],3.45 µg/mL
Cc1ccc(-c2cc(-c3ccc(Nc4nc5ccccc5c5nncn45)cc3)nc(=O)[nH]2)cc1,pIC50,HCT-116 [17],4.93
COc1ccc(-c2nc3ccccc3c3cc4ccccc4n23)cc1,pIC50,A549 [9],4.51
Clc1ccc2nc(-c3ccccc3)n3c4ccccc4cc3c2c1,pIC50,A549 [9],4.51
Clc1cc2c(cc1Br)ncn1cnnc21,IC50,MCF7 [24],3.39 µg/mL
COc1ccc(C2CC(c3ccc(Nc4nc5ccccc5c5nncn45)cc3)=NN2)cc1 (configuration not stated),pIC50,HepG2 [25],4.79
Clc1ccc(-c2nc3ccccc3c3cc4cc(Cl)ccc4n23)cc1,pIC50,A549 [9],4.51
O=C(NNc1nc2ccccc2c2nncn12)NC1CCCCC1,pIC50,HCT-116 [26],5.25
same,pIC50,DNA,4.37
same,pIC50,HepG2 [27],5.10
c1ccc(C2CC(c3ccc(Nc4nc5ccccc5c5nncn45)cc3)=NN2)cc1 (configuration not stated),pIC50,HepG2 [25],4.79
O=C(N/N=C/c1ccccc1Cl)c1ccc(Nc2nc3ccccc3c3nncn23)cc1,pIC50,HepG2 [10],5.31
same,pIC50,HCT-116 [11],5.28
O=c1nc2c3cc(Cl)c(Br)cc3ncn2c(O)c1-c1ccccc1,IC50,MCF7 [18],3.44 µg/mL
COc1ccc(C(=O)c2c(N)nn3c(NC(C)(C)CC(C)(C)C)nc4ccccc4c23)cc1,pIC50,NCI-H1299 [28],5.69
same,pIC50,MDA-MB-231 [29],5.61
same,pIC50,A549 [30],5.76
Clc1ccc(-c2nc3ccccc3c3cc4ccccc4n23)cc1,pIC50,A549 [9],4.51
c1ccc(Nc2ccccc2-c2nc3ccccc3c3nc(-c4ccccc4)nn23)cc1,IC90,HepG2 [31],59.9 µg/mL
same,IC50,HepG2 [32],33.3 µg/mL
same,IC50,MCF7 [33],87 µg/mL
same,IC90,MCF7 [34],137 µg/mL
Cc1ccc2c(c1)cc1c3ccccc3nc(-c3ccccc3)n21,pIC50,A549 [9],4.51
CC(C)(C)CC(C)(C)Nc1nc2ccccc2c2c(C(=O)c3ccc(F)cc3)c(N)nn12,pIC50,NCI-H1299 [28],5.88
same,pIC50,MDA-MB-231 [29],5.71
same,pIC50,NCI-H1299 [35],> 5.60
same,pIC50,A549 [30],5.97
same,pIC50,cells,> 5.60
S=C(NNc1nc2ccccc2c2nncn12)NC1CCCCC1,pIC50,DNA,4.32
COC(=O)c1nn2c(NC(C)(C)C)nc3cc(Cl)ccc3c2c1C(=O)OC,pIC50,HCT-116 [36],5.64
same,pIC50,U-87 MG,5.59
same,pIC50,A549 [37],5.96
O=C(N/N=C/c1ccc(Cl)cc1)c1ccc(Nc2nc3ccccc3c3nncn23)cc1,pIC50,HepG2 [10],5.06
same,pIC50,HCT-116 [11],4.96
Cc1ccc2nc(-c3ccccc3)n3c4ccccc4cc3c2c1,pIC50,A549 [9],4.51
Cc1ccc(C2CC(c3ccc(Nc4nc5ccccc5c5nncn45)cc3)=NN2)cc1 (configuration not stated),pIC50,HepG2 [25],4.79
c1ccc(-c2nc3ccccc3c3cc4ccccc4n23)cc1,pIC50,A549 [9],4.51
COc1ccc(-c2nc3ccccc3c3cc4cc(Cl)ccc4n23)cc1,pIC50,A549 [9],4.51
Cc1nc2ccccc2c2cc3ccccc3n12,pIC50,A549 [9],4.51
CC(C)(C)CC(C)(C)Nc1nc2ccccc2c2c(C#N)c(N)nn12,pIC50,NCI-H1299 [28],5.69
same,pIC50,MDA-MB-231 [29],5.71
same,pIC50,NCI-H1299 [35],> 5.60
same,pIC50,cells,> 5.60
CCCc1nc2ccccc2c2nc3ccccc3n12,IC50,[7],0.78 µg/mL
same,IC50,[8],0.78 µg/mL
COc1cccc2c1C(=O)c1c(O)c3c(c(O)c1C2=O)C[C@@](O)(C(=O)CO)C[C@@H]3O[C@H]1C[C@H](N)[C@H](O)[C@H](C)O1 [DOXORUBICIN],pIC50,HCT-116 [22],5.02
same,pIC50,DNA,4.50
same,pIC50,HepG2 [25],5.10
